Source: patent US20140303092A1 (CHIMERIX, INC., priority 2011, published 2014)

Columns and labels:
HHV-6(B) = experiment: In vitro antiviral activity in cell culture, HHV-6(B); assay type: cell-based, human herpesvirus 6; conditions: Human betaherpesvirus 6, B-cell
AdV = experiment: In vitro antiviral activity in cell culture, AdV; assay type: cell-based; conditions: unidentified adenovirus
clinical = conditions: human, in vivo
Description: The pharmacokinetics of HDP-CDV (oral solution) were investigated in a dose-escalation study in healthy volunteers (Study HDP-CDV-102) in which single doses of up to 2 mg/kg and multiple doses (3 doses, each separated by 6 days) of up to 1 mg/kg were administered.

[1] = Study HDP-CDV-112: mass balance and metabolite profiling of 14C-radiolabeled HDP-CDV; conditions: for metabolite AUC as share of total HDP-CDV-derived radioactivity AUC: plasma, through 24 h postdose
Description: The criteria for stopping urine and stool collection were assessed independently of each other.

| SMILES | EC50 (HHV-6(B)) [µM] | EC50 (AdV) [µM] | Cmax and AUC versus dose (clinical) | accumulation on Day 12 (clinical) | time of Cmax after administration (clinical; po) [h] | in vitro pharmacological activity and cytotoxicity compared to HDP-CDV (ectromelia) | percent dose excreted in feces ([1]; drug-derived metabolites) [%] | percent dose excreted in urine ([1]; drug-derived metabolites) [%] | metabolite AUC as share of total HDP-CDV-derived radioactivity AUC [1] |
| --- | --- | --- | --- | --- | --- | --- | --- | --- | --- |
| Nc1nc(O)c2ncn(COC(CO)CO)c2n1 [Ganciclovir, ganciclovir] | 5.9 | 4.5 to 33 | – | – | – | – | – | – | – |
| Nc1ccn(C[C@@H](CO)OCP(=O)(O)O)c(=O)n1 [Cidofovir, cidofovir, reference compound] | 5.4 | 1.3 | increased approximately in proportion to dose | negligible accumulation | 9 to 15 | lower pharmacologic and cytotoxic activity | – | – | – |
| Nc1ccn(CC(CO)OCP(=O)(O)OCCCO)c(=O)n1 (stereo not drawn) [CMX103, 3-hydroxypropyl ester of CDV] | – | – | – | – | – | lower pharmacologic and cytotoxic activity | 6 | 21 | approximately 32% |
| Nc1ccn(C[C@@H](CO)OCP(=O)(O)OCCCOCCCC(=O)O)c(=O)n1 [CMX064, 4-(3-propoxy)butanoic acid ester of CDV] | – | – | – | – | – | lower pharmacologic and cytotoxic activity | – | 10 | ~23% |
